Experimental data: patent publication US9221761B2, “Method for inhibition of deubiquitinating activity” (Vivolux AB, priority 2011, dated 2015)

Assays:
HCT116 = experiment: FMCA (Fluorometric Microculture Cytotoxicity Assay) cytotoxicity; format: cell-based; details: for IC50: 72 hours of continuous compound exposure
Protocol: FIGS. 1a to 1o are diagrams illustrating induction of dose-dependent cytotoxicity after 72 hours of continuous compound exposure to the reporter cell line HCT-116 by embodiments of the compound of the invention, as measured FMCA (Fluorometric Microculture Cytotoxicity Assay), as well as absence of such induction by structurally related compounds not comprised by the invention. Treated cells were compared to untreated controls (survival index);
Determination of cell apoptosis and viability. For determination of apoptosis parental HCT-116 p53+/+ cells are treated with the increasing doses of the compound of the invention for 24 h. […] HCT-116 cells are seeded in 96-well microtiter plates at 10,000 cells per well and incubated overnight. Cells are treated with indicated drug for 24 h. At the end of the incubation period, NP40 is added to the tissue culture medium to 0.1% and 25 μl of the content of each well was assayed using the M30-Apoptosense® ELISA as previously described (31). Cell viability is determined by measuring acid phosphatase activity or using the FMCA method (32). For the acid phosphatase activity cells are seeded at 5000 cells per well in 96-well culture plates and incubated for 12 h at 37° C. Compounds are added to the cells in growth media and incubated for 72 h at 37° C. Cells are washed with 200 μl warm PBS. 100 μl of para-nitrophenyl phosphate (pNPP, 2 mg/ml) in Na acetate buffer pH 5 (NaAc 0.1 M, 0.1% Triton-X-100) is added per well. Cells are incubated for 2 h after which reaction was stopped by addition of 1N NaOH. Absorbance is measured at 405 nm. The dose-dependent cytotoxicity of a number of embodiments of the compound of the invention is illustrated in FIGS. 1a-1o.
For the FMCA assay cells are seeded in the drug-prepared 384-well plates using the pipetting robot Precision 2000 (Bio-Tek Instruments Inc., Winooski, Vt.). The plates are incubated for 72 h and then transferred to an integrated HTS SAIGAN Core System consisting of an ORCA robot (Beckman Coulter) with CO2 incubator (Cytomat 2C, Kendro, Sollentuna, Sweden), dispenser module (Multidrop 384, Titertek, Huntsville, Ala.), washer module (ELx 405, Bio-Tek Instruments Inc), delidding station, plate hotels, barcode reader (Beckman Coulter), liquid handler (Biomek 2000, Beckman Coulter) and a multipurpose reader (FLUOstar Optima, BMG Labtech GmbH, Offenburg, Germany) for automated FMCA. Survival index (SI) is defined as the fluorescence of test wells in percentage of controls with blank values subtracted.
FIGS. 3b, 3d, 3f are diagrams illustrating the cytotoxicity of compounds of the invention nos. 1546, 1547, and 1570 with a 7-membered ring moiety in comparison to structurally corresponding compounds not comprised by the invention with a 6-membered ring moiety. Their induction of dose-dependent cytotoxicity was determined after 72 hours of continuous compound exposure to the reporter cell line HCT-116. Treated cells were compared with untreated controls. Cytotoxicity is visualized as survival index (SI) over the range of about 90% SI to about 0% SI in dependence on compound concentration.

[1] = system: MelJuSo Ub-YFP reporter cell line; experiment: Proteasome inhibition in reporter cell line, YFP accumulation in IncuCyte-FLR; format: cell-based; details: YFP accumulation measured for 48 hours; for MeJuSo-UB, lowest effective conc.: Table 2; for MeJuSo-UB, IncuCyte lowest effective conc.: Table 1
Text: Cell culture. MCF7 cells are maintained in MEM/10% fetal calf serum. HCT-116 p53+/+, p53−/−, Bcl-2+/+, PUMA−/− and BAX−/− cells are maintained in McCoy's 5A modified medium/10% fetal calf serum. The HCT-116 p53+/+, p53−/−, PUMA−/− and BAX−/− are generated as described (25). The HCT-116 Bcl-2+/+ cell line was generated by transfecting parental HCT-116 p53+/+ cells with pCEP4 Bcl-2 (Addgene plasmid 16461) (26) and isolating high expression clones. FaDu and LLC3 cells are maintained in DMEM high glucose medium supplemented with 10% fetal calf serum, Na pyruvate, Hepes and non-essential amino acids. 4T1.12B carcinoma cells are maintained in RPMI medium supplemented with 10% fetal calf serum. The proteasome reporter cell line MelJuSo Ub-YFP was generated as described (12). Cells were maintained in Dulbecco's Modified Eagle's Medium/10% fetal calf serum. […] The retinal epithelial cell line was generated as described (28). All cells are maintained at 37° C. in 5% CO2.
The compound of the invention induces proteasome inhibition. The reporter cell line MelJuSo Ub-YFP, which is engineered to accumulate yellow fluorescent protein (YFP) upon proteasome inhibition (12), was used for compound evaluation. The accumulation of YFP was measured for 48 hours in an IncuCyte-FLR system (Essen Bioscience, Essen, UK), which is an automated fluorescence microscope. Numbers of positive cells per field were used as a measure of proteasome inhibition.

[2] = Dissolution in 25% by weight Kolliphor HS15; format: physicochemical
Protocol: Pharmaceutical composition E (solution). For intraperitoneal administration a 25% by weight Kolliphor HS15 stock solution was prepared by melting an entire container of Kolliphor HS15 (Sigma 42966) by warming to 60° C. and diluting with deionized water to 25% w/w. To compound #1570 (18.0 mg) in a 10 mL sample tube was added 10.0 mL of the stock solution and the tube vortexed, treated with ultrasound at about 50° C. for about 2 h, and occasionally heated to about 83° C. […] By the same procedure solutions of compounds #1546 and #1571 were prepared; these compounds were however not fully dissolved. The non-dissolved residue was weighed, and the weight deducted from the starting weight of compound (18 mg).

Structure (SMILES)	IC50 (HCT116; Table 2)	MeJuSo-UB, lowest effective conc. [1]	IC50 (HCT116; Table 1)	MeJuSo-UB, IncuCyte lowest effective conc. [1]	further results
C=CC(=O)N1CCC(=Cc2ccc(F)c([N+](=O)[O-])c2)C(=O)C(=Cc2ccc(F)c([N+](=O)[O-])c2)C1 [Compound 1570]	500 nM	0.25 µM	–	–	cytotoxicity relative to structurally corresponding compounds with a 6-membered ring moiety (HCT116; HCT-116, 72 hours, survival index, FIGS. 3b, 3d, 3f): more cytotoxic; dissolution of 18.0 mg in 10.0 mL stock solution ([2]; 25% w/w Kolliphor HS15, ultrasound about 50° C. about 2 h): clear solution
CC(=O)N1CCC(=Cc2ccc(F)c([N+](=O)[O-])c2)C(=O)C(=Cc2ccc(F)c([N+](=O)[O-])c2)C1 [Compound 1571]	900 nM	0.25 µM	–	–	amount of compound contained in prepared solution (10 ml) ([2]; 18 mg starting weight, 25% w/w Kolliphor HS15, ultrasound about 50° C., non-dissolved residue deducted): 11.0 mg
O=C1C(=Cc2ccc(F)c([N+](=O)[O-])c2)CCNCC1=Cc1ccc(F)c([N+](=O)[O-])c1 [Compound 1562]	–	–	500 nM	0.25 µM	–
O=C1C(=Cc2ccc(C(F)(F)F)c(F)c2)CCNCC1=Cc1ccc(C(F)(F)F)c(F)c1 [Compound 1626]	–	–	800 nM	8 µM	–
CC(=O)OCCC(=O)N1CCC(=Cc2ccc(F)c([N+](=O)[O-])c2)C(=O)C(=Cc2ccc(F)c([N+](=O)[O-])c2)C1 [Compound 1662]	2100 nM	1 µM	–	–	–
CN1CCC(=Cc2ccc(F)c(F)c2)C(=O)C(=Cc2ccc(F)c(F)c2)C1 [Compound 1610]	–	–	1700 nM	1 µM	–
O=C1C(=Cc2cc(F)cc(C(F)(F)F)c2)CCNCC1=Cc1cc(F)cc(C(F)(F)F)c1 [Compound 1611]	–	–	1100 nM	0.5 µM	–
COc1ccc(C=C2CN(C(C)=O)CCC(=Cc3ccc(F)cc3)C2=O)cc1 [Compound 1578]	7000 nM	8 µM	–	–	–
C=CC(=O)N1CCC(=Cc2ccc([N+](=O)[O-])cc2)C(=O)C(=Cc2ccc(OC)cc2)C1 [Compound 1580]	1500 nM	8 µM	–	–	–
O=C1C(=Cc2ccc(F)cc2)CCNCC1=Cc1ccc([N+](=O)[O-])cc1 [Compound 1585]	–	–	1500 nM	2 µM	–
CN1CCC(=Cc2ccc(F)c(Cl)c2)C(=O)C(=Cc2ccc(F)c(Cl)c2)C1 [Compound 1608]	–	–	1800 nM	1 µM	–
CC(=O)N1CCC(=Cc2ccc(Cl)c(F)c2)C(=O)C(=Cc2ccc(Cl)c(F)c2)C1 [Compound 1630]	900 nM	0.5 µM	–	–	–
O=C1/C(=C/c2ccc(Cl)cc2)CCNC/C1=C\c1ccc([N+](=O)[O-])cc1 [Compound 1583, (3E,5E)-5-[(4-chlorophenyl)methylidene]-3-[(4-nitrophenyl)methylidene]azepan-4-one]	–	–	–	2 µM	IC50 (HCT116; Homo sapiens, HCT-116, Table 1): 3300 nM
CN1CCC(=Cc2cc(F)cc(C(F)(F)F)c2)C(=O)C(=Cc2cc(F)cc(C(F)(F)F)c2)C1 [Compound 1612]	–	–	700 nM	0.25 µM	–
C=CC(=O)N1CCC(=Cc2cccc([N+](=O)[O-])c2)C(=O)C(=Cc2cccc([N+](=O)[O-])c2)C1 [Compound 1572]	2500 nM	0.5 µM	–	–	–
O=C1C(=Cc2ccc([N+](=O)[O-])cc2)CCNCC1=Cc1ccc(Cl)cc1 [Compound 1591]	–	–	900 nM	0.5 µM	–
COc1ccc(C=C2CN(C)CCC(=Cc3ccc([N+](=O)[O-])cc3)C2=O)cc1 [Compound 1588]	–	–	3100 nM	1 µM	–
CC(=O)N1CCC(=Cc2ccc([N+](=O)[O-])cc2)C(=O)C(=Cc2ccc(Cl)cc2)C1 [Compound 1597]	1300 nM	1 µM	–	–	–
CCCN1CC/C(=C\c2ccc(F)cc2)C(=O)/C(=C/c2ccc(F)cc2)C1 [Compound 1574, (3E,5E)-3,5-bis[(4-fluorophenyl)methylidene]-1-propylazepan-4-one]	–	–	–	0.5 µM	IC50 (HCT116; Homo sapiens, HCT-116, Table 1): 2800 nM
CC(=O)OCCC(=O)N1CCC(=Cc2cc(F)c(F)c(F)c2)C(=O)C(=Cc2cc(F)c(F)c(F)c2)C1 [Compound 1664]	2800 nM	4 µM	–	–	–
CN1CCC(=Cc2ccc(C#N)cc2)C(=O)C(=Cc2ccc(C#N)cc2)C1 [Compound 1621]	–	–	4500 nM	2 µM	–
O=C1/C(=C/c2cc(F)c(F)c(F)c2)CCN(C(=O)Cc2ccccn2)C/C1=C\c1cc(F)c(F)c(F)c1 [Compound 1653]	710 nM	1 µM	–	–	–
C=CC(=O)N1CCC(=Cc2ccc(F)cc2)C(=O)C(=Cc2ccc(F)cc2)C1 [Compound 1568]	1500 nM	2 µM	–	–	–
O=C1C(=Cc2ccc(Cl)c(C(F)(F)F)c2)CCN(C(=O)Cc2cccnc2)CC1=Cc1ccc(Cl)c(C(F)(F)F)c1 [Compound 1655]	1000 nM	1 µM	–	–	–
O=C(Cc1ccccn1)C(=O)N1CCC(=Cc2ccc(Cl)c(C(F)(F)F)c2)C(=O)C(=Cc2ccc(Cl)c(C(F)(F)F)c2)C1 [Compound 1658]	800 nM	0.5 µM	–	–	–
CC(=O)OCC(=O)N1CC/C(=C\c2ccc(Cl)c(F)c2)C(=O)/C(=C/c2ccc(Cl)c(F)c2)C1 [Compound 1645]	2500 nM	2 µM	–	–	–
